Test results: article PMC5515887, “Ruthenium-conjugated chrysin analogues modulate platelet activity, thrombus formation and haemostasis with enhanced efficacy” (Scientific Reports, 2017)

Assays:
human washed platelets = assay: CRP-XL-induced aggregation of human washed platelets (optical aggregometry); format: cell-based; conditions: CRP-XL 0.5 μg/mL
Method: To determine the effects of chrysin and thio-chrysin and their Ru-complexes in the modulation of platelet activation, aggregation assays were performed using cross-linked collagen-related peptide (CRP-XL) as a platelet agonist, by optical aggregometry. Firstly, to determine the effects of chrysin and its derivatives on isolated platelets, aggregation assays were performed using human washed platelets (devoid of plasma proteins and other blood cells).
Figure 2 Effects of chrysin and its derivatives in washed platelet aggregation. […] The aggregation traces shown are representative of three separate experiments.
The preparation of human platelets and aggregation assays were performed using standard protocols as described by us previously, [16]. Briefly, human blood was collected in 3.2% citrate containing vacutainers via venepuncture from healthy, aspirin-free individuals with informed consent in accordance with the methods approved by the University of Reading Research Ethics Committee. All methods were performed in accordance with the relevant institutional and national guidelines and regulations. Blood samples were centrifuged at 102 g for 20 minutes at room temperature to separate the PRP, which was used in aggregation, flow cytometry, static platelet adhesion, calcium mobilisation and clot retraction assays. For the preparation of washed platelets, 50 mL of blood samples were mixed with 7.5 mL of ACD (acid citrate dextrose) (20 g/L glucose, 25 g/L sodium citrate and 15 g/L citric acid) and centrifuged at 102 g for 20 minutes at room temperature. The PRP was carefully aspirated from the other blood cells prior to mixing with 3 mL of ACD and centrifuging at 1413 g for 10 minutes at room temperature. The resulting platelet pellet was re-suspended in modified Tyrodes-HEPES buffer (2.9 mM KCl, 134 mM NaCl, 0.34 mM Na2HPO4.12H20, 1 mM MgCl2, 12 mM NaHCO3, 20 mM HEPES, pH 7.3) and washed by centrifuging again at 1413 g for 10 minutes. The resulting platelet pellet was suspended in modified Tyrodes-HEPES buffer at a density of 4 × 10^8 cells/mL for aggregation, dense granule secretion, cellular uptake studies and calcium mobilisation assays. Human platelet aggregation was performed using CRP-XL as an agonist in the presence and absence of various concentrations of chrysin and its synthetic derivatives by optical aggregometry. A vehicle control [DMSO at a concentration of less than 0.1% (v/v)] was included in all the experiments. Dense granule secretion in platelets was determined by measuring the ATP release using the luciferin-luciferase reagent by lumi-aggregometry (Chrono-Log, USA). SDS-PAGE and immunoblotting analysis were performed using standard protocols. The rabbit anti-phospho-specific antibodies for human AKT pS473, FAK pY397 and Src pY527 were obtained from Abcam, UK and rabbit anti-human 14-3-3ζ (Santa Cruz Biotechnology, USA) was used to detect protein 14-3-3ζ as a loading control in immunoblot assays. The Cy5-conjugated goat anti-rabbit IgG (Life technologies, UK) was used as the secondary antibody.

[1] = tested on: α-granule secretion in platelets; assay: P-selectin exposure by flow cytometry (marker for α-granule secretion); format: cell-based, human; conditions: PRP, CRP-XL 0.5 μg/mL
Method: Platelets primarily contain two types of granules (α- and dense granules) and the activation of platelets releases the granule contents to the external environment, where they play important roles in the stimulation of additional platelets and their recruitment to the growing thrombus. […] However, chrysin affected α-granule secretion only at a minimum concentration of 50 μM in platelets.
(§1) Figure 5 Chrysin and its derivatives affect granule secretion in platelets. […] The level of P-selectin (as a marker for α-granule secretion) was quantified using PECy5-labelled anti-human P-selectin antibodies by flow cytometry. […] R represents ‘resting’ platelets. […] Platelets were then activated with 0.5 μg/mL CRP-XL and the ATP release was monitored for 5 minutes by lumi-aggregometry. The traces shown are representative of three separate experiments.

[2] = tested on: dense granule secretion in washed platelets; assay: ATP release by lumi-aggregometry (marker for dense granule secretion); format: cell-based, human; conditions: 100 μM compound, CRP-XL 0.5 μg/mL
Method: as §1
The preparation of human platelets and aggregation assays were performed using standard protocols as described by us previously, [16]. Briefly, human blood was collected in 3.2% citrate containing vacutainers via venepuncture from healthy, aspirin-free individuals with informed consent in accordance with the methods approved by the University of Reading Research Ethics Committee. All methods were performed in accordance with the relevant institutional and national guidelines and regulations. Blood samples were centrifuged at 102 g for 20 minutes at room temperature to separate the PRP, which was used in aggregation, flow cytometry, static platelet adhesion, calcium mobilisation and clot retraction assays. […] Dense granule secretion in platelets was determined by measuring the ATP release using the luciferin-luciferase reagent by lumi-aggregometry (Chrono-Log, USA). […]

[3] = tested on: platelet adhesion (integrins αIIbβ3 and α2β1); assay: Static platelet adhesion assay on collagen, CRP-XL and fibrinogen; format: cell-based, human; conditions: PRP; static conditions; in the presence and absence of integrilin (4 µM)
Method: Integrins αIIbβ3 and α2β1 play critical roles in platelet adhesion to different matrix proteins such as fibrinogen and collagen, respectively.
Micro titre plates (96 well) were coated with 1 μg/100 μL/well of fibrinogen, collagen or CRP-XL followed by incubation at 4 °C for overnight. Following the removal of unbound proteins/peptide, the wells were blocked with 1% bovine serum albumin in modified Tyrodes-HEPES buffer for 1 hour. The plates were then washed three times with modified Tyrode’s-HEPES buffer prior to adding human PRP (1 × 10^8 cells/mL, 50 μL/well) and incubated at room temperature for 1 hour. Non-adhered platelets were discarded and then the wells were washed with modified Tyrodes-HEPES buffer. Citrate lysis buffer (100 μL/well) was added and incubated for 1 hour at room temperature. Finally, 100 μL of 2 M NaOH was added to all the wells to stop the reaction and the absorbance was measured at 405 nm using a Fluostar Optima spectrofluorimeter (BMG Labtech, Germany). Experiments were performed both in the absence and presence of integrilin (4 μM) (an antagonist for integrin αIIbβ3).

Src = assay: Immunoblot of Src phosphorylation at Y527 in CRP-XL activated platelets; format: cell-based, human; conditions: washed platelets, CRP-XL 0.5 μg/mL
Text: The calcium traces (Ai and Bi) shown are representative of three separate experiments. […] The platelets were lysed and used for immunoblot analysis to detect the level of AKT phosphorylation at residue S473, FAK phosphorylation at Y397 and phosphorylation of Src at Y527. The level of 14-3-3ζ protein was detected as a loading control. The cropped images of the blots shown here are representative of three separate experiments. The uncropped full length blots are presented in Supplementary Information (Figure S8).
Calcium mobilisation is associated with phosphoinositide 3-kinase (PI3K) signalling in platelets. Protein kinase B (AKT) is a downstream effector of PI3K and a key marker for the PI3K/AKT signalling pathway. […]
The preparation of human platelets and aggregation assays were performed using standard protocols as described by us previously, [16]. Briefly, human blood was collected in 3.2% citrate containing vacutainers via venepuncture from healthy, aspirin-free individuals with informed consent in accordance with the methods approved by the University of Reading Research Ethics Committee. […] Dense granule secretion in platelets was determined by measuring the ATP release using the luciferin-luciferase reagent by lumi-aggregometry (Chrono-Log, USA). […]

## O=c1cc(-c2ccccc2)oc2cc(O)cc(O)c12 [chrysin]
Human washed platelets; 6.25 μM compound
  reduction in CRP-XL-induced platelet aggregation: approximately 80%
Human washed platelets
  effect on CRP-XL-induced platelet aggregation in washed platelets: inhibited CRP-XL (0.5 μg/mL)-induced aggregation in washed platelets in a concentration-dependent manner
[1]
  concentrations that significantly inhibit α-granule secretion: ≥ 50 µM
[2]; Homo sapiens, Platelet
  inhibition at 100 µM: 100%
[3]
  effect on platelet adhesion to collagen, CRP-XL or fibrinogen: did not affect platelet adhesion
Src
  effect on dephosphorylation of Src at Y527: significant impact on the dephosphorylation of Src at Y527

## chlorido [(5-oxo-κO)-7-hydroxy-(2-phenyl)-4H-chromen-4-thionato-κS] (η6-p-cymene)ruthenium(II) [Ru-thio-chrysin]
Human washed platelets
  effect on CRP-XL-induced platelet aggregation in washed platelets: inhibited CRP-XL-induced platelet aggregation in a concentration-dependent manner
[1]; 100 μM compound
  inhibition of α-granule secretion (P-selectin): approximately 80%
[1]
  concentrations that significantly inhibit α-granule secretion: ≥ 12.5 µM
[2]
  inhibition of dense granule secretion (ATP release): 100%
[3]
  effect on platelet adhesion to collagen, CRP-XL or fibrinogen: did not affect platelet adhesion
Src
  effect on dephosphorylation of Src at Y527: significant impact on the dephosphorylation of Src at Y527
